Measurements taken from patent US12600740B2, “Fluorinated N-acetyl glucosamine analogs and xylose derivatives” (UTI Limited Partnership, priority 2018, dated 2026).

Test system: oligodendrocyte precursor cells (OPCs)
Test: Growth of OPCs on astrocyte-secreted extracellular matrix
Assay type: cell-based, mouse
Details: for mean process outgrowth of OPCs on astrocyte ECM: astrocytes treated 48 hours, then removed, OPCs plated on matrix; for Enhance OPC outgrowth: OPCs on inhibitory astrocyte matrix, significance class
Excerpt: The process of remyelination requires oligodendrocyte lineage cells to undergo process outgrowth prior to their expression of mature myelin proteins for repair. Thus, process outgrowth in culture by cells of the oligodendrocyte lineage has been used as one surrogate for myelinating potential in vivo [Keough, M. B.; Rogers, J. A.; Zhang, P.; Jensen, S. K.; Stephenson, E. L.; Chen, T.; Hurlbert, M. G.; Lau, L. W.; Rawji, K. S.; Plemel, J. R. et al. An inhibitor of chondroitin sulfate proteoglycan synthesis promotes central nervous system remyelination. Nat. Commun. 2016, 7, 11312], since an oligodendrocyte needs to elaborate multiple protrusions emanating in several directions to contact many axons, and where these processes then compact around axons to form myelin segments. The presence of CSPGs in culture impairs the process outgrowth of OPCs, and this has been linked to reduced remyelination capacity in vivo [Keough, M. B.; Rogers, J. A.; Zhang, P.; Jensen, S. K.; Stephenson, E. L.; Chen, T.; Hurlbert, M. G.; Lau, L. W.; Rawji, K. S.; Plemel, J. R. et al. An inhibitor of chondroitin sulfate proteoglycan synthesis promotes central nervous system remyelination. Nat. Commun. 2016, 7, 11312]. It was reported previously that astrocytes in culture produce a plate-bound matrix abundant in CSPGs, that is left behind once astrocytes are removed from the plate, and this CSPG-containing matrix inhibits the outgrowth of plated OPCs [Keough, M. B. et al. An inhibitor of chondroitin sulfate proteoglycan synthesis promotes central nervous system remyelination. Nature communications 7, 11312 (2016)] (FIG. 7a). Thus, astrocytes were treated with test compounds for 48 hours and they were then removed from the cell culture plate leaving only their secreted ECM behind (FIG. 7a). When OPCs were plated on the astrocyte matrix, the extent of their process outgrowth over […] of observation was inhibited (FIG. 7b). […] OPCs growing in the absence of astrocyte ECM can reach a mean outgrowth around 300 μm (FIG. 7b,c). […] These compounds were: Ac-4,4-diF-GlcNAc 16 (Ac-4,4-diF-GlcNAc), fluorosamine 3 and its O1-deacetylated analog 10 (Ac-4-F-GlcNAcOH), anomeric O-propanoate 7, anomeric O-butanoate 8 (Ac-4-F-GlcNAcOBu), and the 4-fluorinated GalNAc derivative 13 (Ac-4-F-GalNAc) (FIG. 7c).
In brief, cortices from postnatal days 1-3 mouse brains were dissociated with papain digestion and then plated as a mixed culture for 7 days in a 37° C. incubator at 8.5% CO2 whereupon OPCs and microglia tended to be loosely attached on top of a monolayer of astrocytes; the OPCs and microglia were then shaken off when placed on an orbital shaker at 220 r.p.m. at 37° C. and 5% CO2 overnight. The media containing microglia and OPCs were collected and added to a 100 mm tissue culture dish and left at 37° C. and 5% CO2 for 30 min, to allow preferential adhesion of microglia. The media were collected again, now containing OPCs, and used as the OPC-enriched isolates for experiments. For the remaining adhered cells, largely astrocytes, these were removed with 0.25% trypsin and after centrifugation and washing, these astrocytes were plated at a density of 1.0×10^5 cells in flat bottom 96-well plates coated with 10 μg/ml poly-L-lysine. Cells were grown for 7 days at 37° C. and 5% CO2 in MGM and daily media changes. Astrocytes were carefully removed with EDTA treatment (0.2 g EDTA (Na4) per liter PBS, 30 minutes at 37° C. and 5% CO2) and mechanical dislodgement with a micropipetter. The remaining ECM left behind was covered with PBS at 4° C. until OPCs were seeded. Enriched OPCs from mixed glial cultures were seeded at a density of 5-10×10^4 cells per well in OPC media and grown at 37° C. and 8.5% CO2 for 18-24 h and then were fixed with 4% ice-cold paraformaldehyde at 4° C. for 10 min, rinsed with PBS, and stored at 4° C. until immunocytochemistry. […]

| Structure (SMILES) | mean process outgrowth of OPCs on astrocyte ECM | Enhance OPC outgrowth |
| --- | --- | --- |
| CCCC(=O)OC1OC(COC(C)=O)[C@@H](F)[C@H](OC(C)=O)C1NC(C)=O (mixture of isomers) [Compound 8, 2-Acetamido-3,6-di-O-acetyl-1-O-butanoyl-2,4-dideoxy-4-fluoro-α/β-D-glucopyranose] | effective at improving mean outgrowth of OPCs | – |
| CC(=O)NC1C(O)OC(COC(C)=O)[C@@H](F)[C@@H]1OC(C)=O (mixture of isomers) [Compound 10] | effective at improving mean outgrowth of OPCs | – |
| CC(=O)NC1C(OC(C)=O)OC(COC(C)=O)[C@H](F)[C@@H]1OC(C)=O (mixture of isomers) [Compound 13, 2-Acetamido-1,3,6-tri-O-acetyl-2,4-dideoxy-4-fluoro-α/β-D-galactopyranose] | effective at improving mean outgrowth of OPCs | – |
| CC(=O)NC1C(OC(C)=O)OC(COC(C)=O)C(F)(F)[C@@H]1OC(C)=O (mixture of isomers) [Compound 16, 2-Acetamido-1,3,6-tri-O-acetyl-2,4-dideoxy-4,4-difluoro-α/β-D-xylo-hexopyranose] | effective at improving mean outgrowth of OPCs | – |
| CC(=O)N[C@H]1[C@H](OC(C)=O)O[C@H](COC(C)=O)[C@@H](OC(C)=O)[C@@H]1OC(C)=O [Compound 1, reference compound] | – | n.s. |
| CC(=O)NC1C(OC(C)=O)OC(COC(C)=O)[C@@H](F)C1OC(C)=O (stereo partly drawn) [Compound 3, reference compound] | effective at improving mean outgrowth of OPCs | ** (**p < 0.01) |
| CCC(=O)OC1OC(COC(C)=O)[C@@H](F)[C@H](OC(C)=O)C1NC(C)=O (stereo partly drawn) [Compound 7, 2-Acetamido-3,6-di-O-acetyl-2,4-dideoxy-4-fluoro-1-O-propanoyl-α/β-D-glucopyranose] | effective at improving mean outgrowth of OPCs | – |
| CCCC(=O)OC[C@H]1OC(O)[C@H](NC(C)=O)[C@@H](OC(=O)CCC)[C@@H]1F (stereo partly drawn) [Compound 12, 2-Acetamido-3,6-di-O-butanoyl-2,4-dideoxy-4-fluoro-α/β-3-D-glucopyranose] | – | n.s. |
